# Test system: Transport facilitation protein genes
# Test: DNA chip mRNA expression in yeast, transport facilitation protein genes (Table 5)
# Assay type: cell-based, Saccharomyces cerevisiae S288C
# How it was run: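 Cells were grown at 25° C. in YPD, treated at logarithmic phase for 2 h with a chemical at a concentration inhibiting growth but not causing death, and compared with untreated cultures. Labeled cDNA was hybridized to a DNA chip carrying all yeast genes, and the expression ratio was taken from scanner fluorescence.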
substance,measurement,setting,value
Na2As [(1)],The level of expressed mRNA in the presence of chemical substance/The level of expressed mRNA in the absence of chemical substance,yeast gene YGR224W,0.9
same,The level of expressed mRNA in the presence of chemical substance/The level of expressed mRNA in the absence of chemical substance,yeast gene YGR260W,0.6
same,The level of expressed mRNA in the presence of chemical substance/The level of expressed mRNA in the absence of chemical substance,yeast gene YGR281W,1.2
same,The level of expressed mRNA in the presence of chemical substance/The level of expressed mRNA in the absence of chemical substance,yeast gene YHL035C,0.7
same,The level of expressed mRNA in the presence of chemical substance/The level of expressed mRNA in the absence of chemical substance,yeast gene YHL040C,1.6
same,The level of expressed mRNA in the presence of chemical substance/The level of expressed mRNA in the absence of chemical substance,yeast gene YHL047C,0.6
same,The level of expressed mRNA in the presence of chemical substance/The level of expressed mRNA in the absence of chemical substance,yeast gene YHR026W,0.9
same,The level of expressed mRNA in the presence of chemical substance/The level of expressed mRNA in the absence of chemical substance,yeast gene YHR092C,2.3
same,The level of expressed mRNA in the presence of chemical substance/The level of expressed mRNA in the absence of chemical substance,yeast gene YHR094C,0.7
same,The level of expressed mRNA in the presence of chemical substance/The level of expressed mRNA in the absence of chemical substance,yeast gene YHR175W,0.8
same,The level of expressed mRNA in the presence of chemical substance/The level of expressed mRNA in the absence of chemical substance,yeast gene YIL006W,1.0
same,The level of expressed mRNA in the presence of chemical substance/The level of expressed mRNA in the absence of chemical substance,yeast gene YIL022W,0.8
same,The level of expressed mRNA in the presence of chemical substance/The level of expressed mRNA in the absence of chemical substance,yeast gene YIL056W,1.1
same,The level of expressed mRNA in the presence of chemical substance/The level of expressed mRNA in the absence of chemical substance,yeast gene YIL088C,0.9
same,The level of expressed mRNA in the presence of chemical substance/The level of expressed mRNA in the absence of chemical substance,yeast gene YJL034W,0.7
same,The level of expressed mRNA in the presence of chemical substance/The level of expressed mRNA in the absence of chemical substance,yeast gene YJL212C,0.8
same,The level of expressed mRNA in the presence of chemical substance/The level of expressed mRNA in the absence of chemical substance,yeast gene YJL219W,1.2
same,The level of expressed mRNA in the presence of chemical substance/The level of expressed mRNA in the absence of chemical substance,yeast gene YJR077C,1.1
same,The level of expressed mRNA in the presence of chemical substance/The level of expressed mRNA in the absence of chemical substance,yeast gene YJR106W,0.9
same,The level of expressed mRNA in the presence of chemical substance/The level of expressed mRNA in the absence of chemical substance,yeast gene YJR121W,0.9
same,The level of expressed mRNA in the presence of chemical substance/The level of expressed mRNA in the absence of chemical substance,yeast gene YKL016C,1.5
same,The level of expressed mRNA in the presence of chemical substance/The level of expressed mRNA in the absence of chemical substance,yeast gene YKL146W,0.8
same,The level of expressed mRNA in the presence of chemical substance/The level of expressed mRNA in the absence of chemical substance,yeast gene YKR039W,1.4
same,The level of expressed mRNA in the presence of chemical substance/The level of expressed mRNA in the absence of chemical substance,yeast gene YKR067W,0.8
same,The level of expressed mRNA in the presence of chemical substance/The level of expressed mRNA in the absence of chemical substance,yeast gene YLL028W,0.6
same,The level of expressed mRNA in the presence of chemical substance/The level of expressed mRNA in the absence of chemical substance,yeast gene YLR081W,1.3
same,The level of expressed mRNA in the presence of chemical substance/The level of expressed mRNA in the absence of chemical substance,yeast gene YLR295C,1.4
same,The level of expressed mRNA in the presence of chemical substance/The level of expressed mRNA in the absence of chemical substance,yeast gene YLR348C,1.1
same,The level of expressed mRNA in the presence of chemical substance/The level of expressed mRNA in the absence of chemical substance,yeast gene YLR378C,0.7
same,The level of expressed mRNA in the presence of chemical substance/The level of expressed mRNA in the absence of chemical substance,yeast gene YMR011W,1.3
same,The level of expressed mRNA in the presence of chemical substance/The level of expressed mRNA in the absence of chemical substance,yeast gene YMR162C,0.8
same,The level of expressed mRNA in the presence of chemical substance/The level of expressed mRNA in the absence of chemical substance,yeast gene YMR203W,0.8
same,The level of expressed mRNA in the presence of chemical substance/The level of expressed mRNA in the absence of chemical substance,yeast gene YNL055C,1.1
same,The level of expressed mRNA in the presence of chemical substance/The level of expressed mRNA in the absence of chemical substance,yeast gene YNR072W,1.1
same,The level of expressed mRNA in the presence of chemical substance/The level of expressed mRNA in the absence of chemical substance,yeast gene YOL119C,2.6
same,The level of expressed mRNA in the presence of chemical substance/The level of expressed mRNA in the absence of chemical substance,yeast gene YOL156W,1.1
same,The level of expressed mRNA in the presence of chemical substance/The level of expressed mRNA in the absence of chemical substance,yeast gene YOL163W,1.5
same,The level of expressed mRNA in the presence of chemical substance/The level of expressed mRNA in the absence of chemical substance,yeast gene YOR035C,1.2
same,The level of expressed mRNA in the presence of chemical substance/The level of expressed mRNA in the absence of chemical substance,yeast gene YOR130C,0.8
same,The level of expressed mRNA in the presence of chemical substance/The level of expressed mRNA in the absence of chemical substance,yeast gene YOR153W,1.6
same,The level of expressed mRNA in the presence of chemical substance/The level of expressed mRNA in the absence of chemical substance,yeast gene YOR273C,0.7
same,The level of expressed mRNA in the presence of chemical substance/The level of expressed mRNA in the absence of chemical substance,yeast gene YOR316C,0.7
same,The level of expressed mRNA in the presence of chemical substance/The level of expressed mRNA in the absence of chemical substance,yeast gene YOR328W,1.0
same,The level of expressed mRNA in the presence of chemical substance/The level of expressed mRNA in the absence of chemical substance,yeast gene YOR332W,1.1
same,The level of expressed mRNA in the presence of chemical substance/The level of expressed mRNA in the absence of chemical substance,yeast gene YOR348C,1.1
same,The level of expressed mRNA in the presence of chemical substance/The level of expressed mRNA in the absence of chemical substance,yeast gene YPL036W,0.5
same,The level of expressed mRNA in the presence of chemical substance/The level of expressed mRNA in the absence of chemical substance,yeast gene YPL134C,1.5
same,The level of expressed mRNA in the presence of chemical substance/The level of expressed mRNA in the absence of chemical substance,yeast gene YPL271W,1.2
same,The level of expressed mRNA in the presence of chemical substance/The level of expressed mRNA in the absence of chemical substance,yeast gene YPR192W,0.9
same,The level of expressed mRNA in the presence of chemical substance/The level of expressed mRNA in the absence of chemical substance,yeast gene YPR194C,2.2
